In ChEMBL document CHEMBL1201862, “PubChem BioAssay data set” (2004):
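48-hour exposure; five concentrations; linearly interpolated endpoints. At the GI50, growth is halved.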 Calls of active or inactive are those of the source. Cut-off read from the data, not from the text of the source: active = GI50 up to about 1.1 µM and inactive = higher.

Legend:
Assay in all cases: NCI tumour cell line growth inhibition, 48 h
KM-20L2 = test system: KM-20L2
Hs-578T = test system: Hs-578T
HOP-18 = test system: HOP-18
786-0 = test system: 786-0
T47D = test system: T47D
DLD-1 = test system: DLD-1
SR = test system: SR
DMS-114 = test system: DMS-114
ACHN = test system: ACHN
HOP-92 = test system: HOP-92
MDA-N = test system: MDA-N
M19-MEL = test system: M19-MEL
BT-549 = test system: BT-549
DU-145 = test system: DU-145
PC-3 = test system: PC-3
MDA-MB-435 = test system: MDA-MB-435
SNB-78 = test system: SNB-78
TK-10 = test system: TK-10
M14 = test system: M14
DMS-273 = test system: DMS-273
MDA-MB-231 = test system: MDA-MB-231
XF498 = test system: XF498
HCC 2998 = test system: HCC 2998
OVCAR-3 = test system: OVCAR-3
UO-31 = test system: UO-31
LOX IMVI = test system: LOX IMVI
HL-60 = test system: HL-60
NCI-H23 = test system: NCI-H23
LXFL 529 = test system: LXFL 529
HOP-62 = test system: HOP-62
RXF 393 = test system: RXF 393
UACC-257 = test system: UACC-257
SF-268 = test system: SF-268
COLO 205 = test system: COLO 205
SF-295 = test system: SF-295
HCT-116 = test system: HCT-116
OVCAR-5 = test system: OVCAR-5
SK-MEL-2 = test system: SK-MEL-2
NCI-H226 = test system: NCI-H226
RPMI-8226 = test system: RPMI-8226
SNB-19 = test system: SNB-19
SW-620 = test system: SW-620
A549 = test system: A549
UACC-62 = test system: UACC-62
SN12C = test system: SN12C
Malme-3M = test system: Malme-3M
OVCAR-8 = test system: OVCAR-8
CCRF-CEM = test system: CCRF-CEM
IGROV-1 = test system: IGROV-1
HT-29 = test system: HT-29
SK-MEL-5 = test system: SK-MEL-5
U-251 = test system: U-251
OVCAR-4 = test system: OVCAR-4
SNB-75 = test system: SNB-75
MOLT-4 = test system: MOLT-4
NCI-H460 = test system: NCI-H460
EKVX = test system: EKVX
SK-MEL-28 = test system: SK-MEL-28
KM12 = test system: KM12

Question: With `C/C=C(\C)c1cc(=O)c2c(C)cc3c(c2o1)C(=O)c1c(O)c(C2CC(C)(N(C)C)C(O)C(C)O2)cc(C2CC(N(C)C)C(O)C(C)O2)c1C3=O` (stereo unspecified) as the compound, how does the GI50 (KM-20L2) read?
Answer: 2.81 µM (inactive)

Question: What about the GI50 (Hs-578T) of the same compound?
Answer: 247 nM (active)

Question: What about the GI50 (HOP-18) of the same compound?
Answer: 0.154 µM (active)

Question: And the GI50 (786-0)?
Answer: 0.13 µM (active)

Question: What about the GI50 (T47D) of the same compound?
Answer: 257 nM (active)

Question: What about the GI50 (DLD-1) of the same compound?
Answer: 2.31 µM (inactive)

Question: What about the GI50 (SR) of the same compound?
Answer: 267 nM (active)

Question: What about the GI50 (DMS-114) of the same compound?
Answer: 1.5 µM (inactive)

Question: What about the GI50 (ACHN) of the same compound?
Answer: 0.0789 µM (active)

Question: What about the GI50 (HOP-92) of the same compound?
Answer: 0.256 µM (active)

Question: And the GI50 (MDA-N)?
Answer: 178 nM (active)

Question: And the GI50 (M19-MEL)?
Answer: 3.21 µM (inactive)

Question: And the GI50 (BT-549)?
Answer: 223 nM (active)

Question: And the GI50 (DU-145)?
Answer: 138 nM (active)

Question: And the GI50 (PC-3)?
Answer: 229 nM (active)

Question: And the GI50 (MDA-MB-435)?
Answer: 217 nM (active)

Question: What about the GI50 (SNB-78) of the same compound?
Answer: 3.87 µM (inactive)

Question: And the GI50 (TK-10)?
Answer: 0.237 µM (active)

Question: And the GI50 (M14)?
Answer: 0.129 µM (active)

Question: And the GI50 (DMS-273)?
Answer: 1.91 µM (inactive)

Question: And the GI50 (MDA-MB-231)?
Answer: 156 nM (active)

Question: What about the GI50 (XF498) of the same compound?
Answer: < 0.01 µM (active)

Question: `O=C(CCC/C(CC(=O)c1ccc(Br)cc1)=N\O)Nc1ccccc1` was tested. Which GI50 (HCC 2998) did it give?
Answer: > 100 µM (inactive)

Question: What about the GI50 (OVCAR-3) of the same compound?
Answer: > 100 µM (inactive)

Question: And the GI50 (KM-20L2)?
Answer: 91.4 µM (inactive)

Question: What about the GI50 (UO-31) of the same compound?
Answer: > 100 µM (inactive)

Question: What about the GI50 (LOX IMVI) of the same compound?
Answer: > 100 µM (inactive)

Question: What about the GI50 (HL-60) of the same compound?
Answer: 65.2 µM (inactive)

Question: And the GI50 (NCI-H23)?
Answer: > 100 µM (inactive)

Question: And the GI50 (LXFL 529)?
Answer: > 100 µM (inactive)

Question: What about the GI50 (HOP-62) of the same compound?
Answer: > 100 µM (inactive)

Question: What about the GI50 (HOP-18) of the same compound?
Answer: > 100 µM (inactive)

Question: What about the GI50 (786-0) of the same compound?
Answer: > 100 µM (inactive)

Question: And the GI50 (RXF 393)?
Answer: 45.9 µM (inactive)

Question: And the GI50 (DLD-1)?
Answer: 96.4 µM (inactive)

Question: And the GI50 (UACC-257)?
Answer: 67.9 µM (inactive)

Question: And the GI50 (SF-268)?
Answer: > 100 µM (inactive)

Question: And the GI50 (COLO 205)?
Answer: > 100 µM (inactive)

Question: What about the GI50 (SF-295) of the same compound?
Answer: > 100 µM (inactive)

Question: What about the GI50 (HCT-116) of the same compound?
Answer: > 100 µM (inactive)

Question: And the GI50 (OVCAR-5)?
Answer: 28.2 µM (inactive)

Question: What about the GI50 (SK-MEL-2) of the same compound?
Answer: > 100 µM (inactive)

Question: And the GI50 (NCI-H226)?
Answer: > 100 µM (inactive)

Question: And the GI50 (DMS-114)?
Answer: 25.5 µM (inactive)

Question: And the GI50 (ACHN)?
Answer: 96.6 µM (inactive)

Question: And the GI50 (HOP-92)?
Answer: 73.3 µM (inactive)

Question: And the GI50 (RPMI-8226)?
Answer: 10.7 µM (inactive)

Question: What about the GI50 (SNB-19) of the same compound?
Answer: > 100 µM (inactive)

Question: And the GI50 (SW-620)?
Answer: > 100 µM (inactive)

Question: And the GI50 (A549)?
Answer: > 100 µM (inactive)

Question: And the GI50 (UACC-62)?
Answer: 46 µM (inactive)

Question: And the GI50 (SN12C)?
Answer: > 100 µM (inactive)

Question: What about the GI50 (Malme-3M) of the same compound?
Answer: > 100 µM (inactive)

Question: And the GI50 (OVCAR-8)?
Answer: > 100 µM (inactive)

Question: What about the GI50 (CCRF-CEM) of the same compound?
Answer: 70.3 µM (inactive)

Question: And the GI50 (M19-MEL)?
Answer: > 100 µM (inactive)

Question: And the GI50 (IGROV-1)?
Answer: 57.3 µM (inactive)

Question: And the GI50 (HT-29)?
Answer: 57.4 µM (inactive)

Question: And the GI50 (SK-MEL-5)?
Answer: 43.3 µM (inactive)

Question: What about the GI50 (SNB-78) of the same compound?
Answer: > 100 µM (inactive)

Question: And the GI50 (U-251)?
Answer: > 100 µM (inactive)

Question: And the GI50 (TK-10)?
Answer: > 100 µM (inactive)

Question: And the GI50 (M14)?
Answer: > 100 µM (inactive)

Question: What about the GI50 (OVCAR-4) of the same compound?
Answer: 76.9 µM (inactive)

Question: What about the GI50 (SNB-75) of the same compound?
Answer: > 100 µM (inactive)

Question: And the GI50 (MOLT-4)?
Answer: 24.5 µM (inactive)

Question: And the GI50 (NCI-H460)?
Answer: > 100 µM (inactive)

Question: And the GI50 (EKVX)?
Answer: > 100 µM (inactive)

Question: What about the GI50 (SK-MEL-28) of the same compound?
Answer: > 100 µM (inactive)

Question: What about the GI50 (KM12) of the same compound?
Answer: > 100 µM (inactive)

Question: What about the GI50 (XF498) of the same compound?
Answer: > 100 µM (inactive)
